{
  "source": "patent US9303045B2",
  "about": "“5-HT3 receptor antagonists” (Takeda Pharmaceutical Company Limited, priority 2013, dated 2016)",
  "note": "pIC50: −log10 of the molar value. Structures can show the parent of a compound that is named as a salt.",
  "data": [
    {"molecular_target": "5HT3a receptor expressed in HEK-293T cells (Homo sapiens (Human), UniProt P46098)", "sequence (P46098 24-478)": "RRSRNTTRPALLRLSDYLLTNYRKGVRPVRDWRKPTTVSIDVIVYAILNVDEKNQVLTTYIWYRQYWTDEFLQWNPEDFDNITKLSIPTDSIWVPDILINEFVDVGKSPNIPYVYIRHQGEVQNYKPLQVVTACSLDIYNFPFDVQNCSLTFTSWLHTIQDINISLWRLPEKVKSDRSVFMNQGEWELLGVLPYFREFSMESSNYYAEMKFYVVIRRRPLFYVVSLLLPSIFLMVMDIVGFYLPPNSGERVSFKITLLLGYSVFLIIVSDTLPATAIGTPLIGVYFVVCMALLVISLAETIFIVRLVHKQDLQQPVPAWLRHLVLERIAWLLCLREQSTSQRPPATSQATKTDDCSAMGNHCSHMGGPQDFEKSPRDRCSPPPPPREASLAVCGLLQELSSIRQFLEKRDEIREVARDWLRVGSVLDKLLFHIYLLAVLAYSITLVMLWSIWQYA", "test": "Inhibition of Ca flux activity of 5HT3 in vitro assay", "format": "cell-based", "settings": "calcium flux, 5HT 216 nM, approximate values", "summary_of_the_method": "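HEK-293T cells transiently transfected with human 5HT3a, loaded 1 hour at 37° C with calcium dye in HBSS/20 mM HEPES, preincubated with compound (10^−7 to 10^−10, half-log) 10 minutes at room temperature.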", "values": [
      {"molecule": "CC(C)S(=O)(=O)n1cc(C(=O)O[C@H]2C[C@H]3COC[C@@H](C2)N3)c2ccccc21", "note": "[Example 131, (1R,5S,7S)-3-oxa-9-azabicyclo[3.3.1]nonan-7-yl 1-(isopropylsulfonyl)-1H-indole-3-carboxylate, 2,2,2-trifluoroacetate]", "pIC50": 8.71},
      {"molecule": "CS(=O)(=O)n1cc(C(=O)O[C@H]2C[C@H]3COC[C@@H](C2)N3)c2cc(F)ccc21", "note": "[Example 132, (1R,5S,7S)-3-oxa-9-azabicyclo[3.3.1]nonan-7-yl 5-fluoro-1-(methylsulfonyl)-1H-indole-3-carboxylate, 2,2,2-trifluoroacetate]", "pIC50": 8.64},
      {"molecule": "CCS(=O)(=O)n1cc(C(=O)OC2C[C@H]3COC[C@@H](C2)N3)c2ccccc21", "note": "(stereo partly drawn) [Example 133, (1R,5S,7S)-3-oxa-9-azabicyclo[3.3.1]nonan-7-yl 1-(ethylsulfonyl)-1H-indole-3-carboxylate, 2,2,2-trifluoroacetate]", "pIC50": 8.82},
      {"molecule": "O=C(OC1C[C@H]2COC[C@@H](C1)N2)c1cn(S(=O)(=O)C2CC2)c2ccccc12", "note": "(stereo partly drawn) [Example 134, (1R,5S,7S)-3-oxa-9-azabicyclo[3.3.1]nonan-7-yl 1-(cyclopropylsulfonyl)-1H-indole-3-carboxylate, 2,2,2-trifluoroacetate]", "pIC50": 8.70},
      {"molecule": "CC(C)CS(=O)(=O)n1cc(C(=O)OC2C[C@H]3COC[C@@H](C2)N3)c2ccccc21", "note": "(stereo partly drawn) [Example 135, (1R,5S,7S)-3-oxa-9-azabicyclo[3.3.1]nonan-7-yl 1-(isobutylsulfonyl)-1H-indole-3-carboxylate, 2,2,2-trifluoroacetate]", "pIC50": 7.93},
      {"molecule": "O=C(O[C@H]1C[C@H]2COC[C@@H](C1)N2)c1cn(-c2cccnn2)c2ccccc12", "note": "[Example 136, (1R,5S,7s)-3-oxa-9-azabicyclo[3.3.1]nonan-7-yl 1-(pyridazin-3-yl)-1H-indole-3-carboxylate, 2,2,2-trifluoroacetic acid salt]", "pIC50": 9.04},
      {"molecule": "O=C(OC1CC2COCC(C1)N2)c1cn(-c2cnccn2)c2ccccc12", "note": "[Example 141, (1R,5S,7s)-3-oxa-9-azabicyclo[3.3.1]nonan-7-yl 1-(pyrazin-2-yl)-1H-indole-3-carboxylate, 2,2,2-trifluoroacetic acid salt]", "pIC50": 8.95},
      {"molecule": "O=C(OC1CC2COCC(C1)N2)c1cn(-c2cnsc2)c2ccccc12", "note": "[Example 143, (1R,5S,7s)-3-oxa-9-azabicyclo[3.3.1]nonan-7-yl 1-(isothiazol-4-yl)-1H-indole-3-carboxylate, 2,2,2-trifluoroacetic acid salt]", "pIC50": 9.38},
      {"molecule": "CN1[C@@H]2COC[C@H]1C[C@@H](NC(=O)c1cn(-c3cnsc3)c3ccccc13)C2", "note": "[Example 144, 1-(isothiazol-4-yl)-N-((1R,5S,7s)-9-methyl-3-oxa-9-azabicyclo[3.3.1]nonan-7-yl)-1H-indole-3-carboxamide, 2,2,2-trifluoroacetic acid salt]", "pIC50": 9.21},
      {"molecule": "CN1[C@@H]2COC[C@H]1C[C@@H](NC(=O)c1cn(-c3nccs3)c3ncccc13)C2", "note": "[Example 146, N-((1R,5S,7s)-9-methyl-3-oxa-9-azabicyclo[3.3.1]nonan-7-yl)-1-(thiazol-2-yl)-1H-pyrrolo[2,3-b]pyridine-3-carboxamide, 2,2,2-trifluoroacetic acid salt]", "pIC50": 9.15},
      {"molecule": "CN1[C@@H]2COC[C@H]1C[C@@H](NC(=O)c1cn(-c3cscn3)c3ncccc13)C2", "note": "[Example 147, N-((1R,5S,7s)-9-methyl-3-oxa-9-azabicyclo[3.3.1]nonan-7-yl)-1-(thiazol-4-yl)-1H-pyrrolo[2,3-b]pyridine-3-carboxamide, 2,2,2-trifluoroacetic acid salt]", "pIC50": 9.40},
      {"molecule": "CN1C2COCC1CC(NC(=O)c1cn(-c3cncs3)c3ncccc13)C2", "note": "[Example 148, N-((1R,5S,7s)-9-methyl-3-oxa-9-azabicyclo[3.3.1]nonan-7-yl)-1-(thiazol-5-yl)-1H-pyrrolo[2,3-b]pyridine-3-carboxamide, 2,2,2-trifluoroacetic acid salt]", "pIC50": 9.40},
      {"molecule": "CN1C2COCC1CC(NC(=O)c1cn(-c3ccsn3)c3ccccc13)C2", "note": "[Example 153, 1-(isothiazol-3-yl)-N-((1R,5S,7s)-9-methyl-3-oxa-9-azabicyclo[3.3.1]nonan-7-yl)-1H-indole-3-carboxamide, 2,2,2-trifluoroacetic acid salt]", "pIC50": 9.06},
      {"molecule": "CN1[C@@H]2COC[C@H]1C[C@@H](NC(=O)c1cn(-c3cncn3C)c3ccccc13)C2", "note": "[Example 154, 1-(1-methyl-1H-imidazol-5-yl)-N-((1R,5S,7s)-9-methyl-3-oxa-9-azabicyclo[3.3.1]nonan-7-yl)-1H-indole-3-carboxamide]", "pIC50": 9.48},
      {"molecule": "CN1C2COCC1CC(NC(=O)c1cn(-c3ccns3)c3ccccc13)C2", "note": "[Example 158, 1-(isothiazol-5-yl)-N-((1R,5S,7s)-9-methyl-3-oxa-9-azabicyclo[3.3.1]nonan-7-yl)-1H-indole-3-carboxamide, 2,2,2-trifluoroacetic acid salt]", "pIC50": 8.87},
      {"molecule": "CN1C2COCC1CC(NC(=O)c1cn(CC#N)c3ccccc13)C2", "note": "[Example 159, 1-(cyanomethyl)-N-((1R,5S,7s)-9-methyl-3-oxa-9-azabicyclo[3.3.1]nonan-7-yl)-1H-indole-3-carboxamide, 2,2,2-trifluoroacetic acid salt]", "pIC50": 9.53},
      {"molecule": "CN1C2COCC1CC(OC(=O)c1cn(CCF)c3ccc(C#N)cc13)C2", "note": "[Example 160, (1R,5S,7s)-9-methyl-3-oxa-9-azabicyclo[3.3.1]nonan-7-yl 5-cyano-1-(2-fluoroethyl)-1H-indole-3-carboxylate, 2,2,2-trifluoroacetic acid salt]", "pIC50": 9.13},
      {"molecule": "CN1[C@@H]2COC[C@H]1C[C@@H](OC(=O)c1cn(-c3ccc(F)nn3)c3ccc(C#N)cc13)C2", "note": "[Example 161, 1R,5S,7s)-9-methyl-3-oxa-9-azabicyclo[3.3.1]nonan-7-yl 5-cyano-1-(6-fluoropyridazin-3-yl)-1H-indole-3-carboxylate]", "pIC50": "< 6.00"},
      {"molecule": "CN1C2COCC1CC(NC(=O)c1cn(-c3nccs3)c3ncc(F)cc13)C2", "note": "[Example 162, 5-fluoro-N-((1R,5S,7s)-9-methyl-3-oxa-9-azabicyclo[3.3.1]nonan-7-yl)-1-(thiazol-2-yl)-1H-pyrrolo[2,3-b]pyridine-3-carboxamide, 2,2,2-trifluoroacetic acid salt]", "pIC50": 8.74},
      {"molecule": "CN1C2COCC1CC(NC(=O)c1cn(-c3cscn3)c3ncc(F)cc13)C2", "note": "[Example 163, 5-fluoro-N-((1R,5S,7s)-9-methyl-3-oxa-9-azabicyclo[3.3.1]nonan-7-yl)-1-(thiazol-4-yl)-1H-pyrrolo[2,3-b]pyridine-3-carboxamide, 2,2,2-trifluoroacetic acid salt]", "pIC50": 8.74},
      {"molecule": "CN1C2COCC1CC(NC(=O)c1cn(-c3cncs3)c3ncc(F)cc13)C2", "note": "[Example 164, 5-fluoro-N-((1R,5S,7s)-9-methyl-3-oxa-9-azabicyclo[3.3.1]nonan-7-yl)-1-(thiazol-5-yl)-1H-pyrrolo[2,3-b]pyridine-3-carboxamide, 2,2,2-trifluoroacetic acid salt]", "pIC50": 8.93},
      {"molecule": "CN1C2COCC1CC(NC(=O)c1nn(-c3cncs3)c3ccccc13)C2", "note": "[Example 165, N-((1R,5S,7s)-9-methyl-3-oxa-9-azabicyclo[3.3.1]nonan-7-yl)-1-(thiazol-5-yl)-1H-indazole-3-carboxamide, 2,2,2-trifluoroacetic acid salt]", "pIC50": 8.81},
      {"molecule": "Cn1ccc(-n2cc(C(=O)O[C@H]3C[C@H]4COC[C@@H](C3)N4)c3ccccc32)cc1=O", "note": "[Example 168, 1R,5S,7s)-3-oxa-9-azabicyclo[3.3.1]nonan-7-yl 1-(1-methyl-2-oxo-1,2-dihydropyridin-4-yl)-1H-indole-3-carboxylate, 2,2,2-trifluoroacetic acid salt]", "pIC50": 8.93},
      {"molecule": "CN1C2COCC1CC(OC(=O)c1cn(-c3ccc(O)nn3)c3ccccc13)C2", "note": "[Example 169, (1R,5S,7s)-9-methyl-3-oxa-9-azabicyclo[3.3.1]nonan-7-yl 1-(6-hydroxypyridazin-3-yl)-1H-indole-3-carboxylate, 2,2,2-trifluoroacetic acid salt]", "pIC50": 9.22},
      {"molecule": "N#Cc1ccccc1-n1cc(C(=O)O[C@H]2C[C@H]3COC[C@@H](C2)N3)c2ccccc21", "note": "[Example 171, (1R,5S,7s)-3-oxa-9-azabicyclo[3.3.1]nonan-7-yl 1-(2-cyanophenyl)-1H-indole-3-carboxylate, 2,2,2-trifluoroacetic acid salt]", "pIC50": 8.96},
      {"molecule": "N#Cc1cccc(-n2cc(C(=O)OC3CC4COCC(C3)N4)c3ccccc32)c1", "note": "[Example 172, (1R,5S,7s)-3-oxa-9-azabicyclo[3.3.1]nonan-7-yl 1-(3-cyanophenyl)-1H-indole-3-carboxylate, 2,2,2-trifluoroacetic acid salt]", "pIC50": 8.54},
      {"molecule": "CN1C2COCC1CC(NC(=O)c1cn(-c3ccccc3)c3ccccc13)C2", "note": "[Example 174, N-((1R,5S,7s)-9-methyl-3-oxa-9-azabicyclo[3.3.1]nonan-7-yl)-1-phenyl-1H-indole-3-carboxamide, 2,2,2-trifluoroacetic acid salt]", "pIC50": 8.69},
      {"molecule": "O=C(O[C@H]1C[C@H]2COC[C@@H](C1)N2)c1cn(-c2ncco2)c2ccccc12", "note": "[Example 177, (1R,5S,7s)-3-oxa-9-azabicyclo[3.3.1]nonan-7-yl 1-(oxazol-2-yl)-1H-indole-3-carboxylate, 2,2,2-trifluoroacetic acid salt]", "pIC50": 8.49},
      {"molecule": "N#Cc1ccc(-n2cc(C(=O)O[C@H]3C[C@H]4COC[C@@H](C3)N4)c3ccccc32)cc1", "note": "[Example 180, (1R,5S,7s)-3-oxa-9-azabicyclo[3.3.1]nonan-7-yl 1-(4-cyanophenyl)-1H-indole-3-carboxylate, 2,2,2-trifluoroacetic acid salt]", "pIC50": 8.23},
      {"molecule": "CN(C(=O)c1cn(-c2cnsc2)c2ccccc12)[C@H]1C[C@H]2COC[C@@H](C1)N2", "note": "[Example 185, N-((1R,5S,7S)-3-oxa-9-azabicyclo[3.3.1]nonan-7-yl)-1-(isothiazol-4-yl)-N-methyl-1H-indole-3-carboxamide]", "pIC50": 8.51},
      {"molecule": "CN(C(=O)c1cn(-c2cnsc2)c2ccccc12)C1C[C@H]2COC[C@@H](C1)N2C", "note": "(stereo partly drawn) [Example 186, 1-(isothiazol-4-yl)-N-methyl-N-((1R,5S,7S)-9-methyl-3-oxa-9-azabicyclo[3.3.1]nonan-7-yl)-1H-indole-3-carboxamide]", "pIC50": 8.82}
    ]}
  ]
}
